Test results: PMC10535389, “Can Pharmaceutical Excipients Threaten the Aquatic Environment? A Risk Assessment Based on the Microtox® Biotest” (Molecules, 2023)
Converted amounts (≈) assume the structure as drawn. “And” between values parts separate entries of the source, which are not always exact repeats. Equal values may be shown once. Where a name gives a salt, the structure may show the parent alone. Read-outs that look alike come from different tables or passages of the source. Marks after values point to notes of the source that are not given here.

Experiments:
[1] = tested on: Aliivibrio fischeri (strain NRRL B-11177); design: method as in earlier work; conditions: ref [10] (Turek et al., J. Haz. Mat. 399 (2020) 122839), cited from earlier work; for EC50 5 min: 5 min of incubation
[2] = pH values of samples used in Microtox test; format: physicochemical; conditions: sample used in Microtox test
[3] = tested on: Aliivibrio fischeri (strain NRRL B-11177); assay: modified Microtox Basic Solid Phase Test (bioluminescence inhibition); format: cell-based; conditions: for EC50: Aliivibrio fischeri
Experimental: (§1) The bioluminescent marine bacterium Aliivibrio fischeri (strain NRRL B-11177) was used to evaluate the acute toxicity of individual excipients, as well as the API–excipient and excipient–excipient mixtures (Figure 1). The inhibition of bioluminescence was measured using the Microtox® Model 500 Analyzer (Modern Water Inc., New Castle, DE, USA). The modified Microtox® Basic Solid Phase Test protocol was applied, which was described in detail in our previous work; a scheme illustrating the course of the ecotoxicological study is shown in Figure 4. The bioluminescence inhibition of A. fischeri was measured after 5, 15, and 30 min of exposure of the bacterium to each sample and then compared with the light output of a control sample. […] Software™.

[4] = as above; format: cell-based, Aliivibrio fischeri; conditions: Aliivibrio fischeri, Toxicity Category (Based on EC50, 30 min)
Experimental: as §1

[5] = tested on: various aquatic organisms; conditions: ref [16, 17, 18, 19, 20]; cited from earlier work
[6] = NRRLB11177, 0.5 h, 30 min of exposure, 95% confidence interval in brackets, read-out: EC50 30 min
[7] = NRRLB11177, 5 min, read-out: EC50 5 min, 5 min of exposure, 95% confidence interval in brackets
[8] = NRRLB11177, 0.25 h, 15 min of exposure, 95% confidence interval in brackets, read-out: EC50 15 min
[9] = 30 min of exposure, 95% confidence interval in brackets
[10] = 5 min of exposure, 95% confidence interval in brackets
[11] = 15 min of exposure, 95% confidence interval in brackets

Compound | EC50 5 min [1] | EC50 15 min [1] | pH [2] | EC50 [3, 6] | EC50 at 30 min [4] | EC50 [3, 7] | EC50 [3, 8] | EC50 30 min [3, 9] | further results
CCCCc1nc(Cl)c(CO)n1Cc1ccc(-c2ccccc2-c2nn[nH]n2)cc1 [LOS-K, Losartan potassium, reference compound] | 583.88 mg/L | 659.02 mg/L | 7.750 | 277 mg/L | – | – | – | – | –
OC[C@H]1O[C@@H](O[C@H]2[C@H](O)[C@@H](O)[C@@H](O)O[C@@H]2CO)[C@H](O)[C@@H](O)[C@H]1O [Lactose monohydrate] | – | – | 5.113 | – | > 100 mg/L | 11700 mg/L | 14000 mg/L | – | EC50 ([3]; NRRLB11177, 0.5 h, 30 min of exposure, EC50 calculated from extrapolated data, read-out: EC50 30 min): 16400 mg/L
OC[C@@H](O)[C@@H](O)[C@H](O)[C@H](O)CO [Mannitol] | – | – | 6.390 | 4250 mg/L (≈ 23300 µM) | > 100 mg/L | 12600 mg/L (≈ 69000 µM) | 5400 mg/L (≈ 29700 µM) | – | –
CNC[C@H](O)[C@@H](O)[C@H](O)[C@H](O)CO [Meglumine] | – | – | 10.830 and ~11 | 10 to 100 mg/L | 10 to 100 mg/L | 28.6 mg/L | 19.7 mg/L | 18.05 (7.237–45.02) 0.7516 mg/L | –
CCCCCCCCCCCCOS(=O)(=O)O [Sodium lauryl sulfate (SLS), Sodium lauryl sulfate] | – | – | 6.779 | < 1 mg/L | < 1 mg/L | 1.37 mg/L | 0.8 mg/L | 0.5544 (0.1138–2.702) 0.6931 mg/L | LC50 (lethal concentration) [5]: 1 to 13.9 mg/L
CCCCCCCCCCCCCCCCCCOC(=O)/C=C/C(=O)[O-].[Na+] [Sodium stearyl fumarate] | – | – | – | – | – | – | – | – | EC50 5 min ([3]; 5 min, value calculated using two points, 95% confidence interval and R^2 could not be determined): 56,456 ^[b] mg/L; EC50 15 min ([3]; 15 min of exposure, EC50 calculated from extrapolated data): 12,815 ^[a] (38.84–4,457,999) 0.9221 mg/L; EC50 30 min ([3]; 30 min of exposure, EC50 calculated from extrapolated data): 80,534 ^[a] (2479–2,616,211) 0.8896 mg/L
OC[C@@H](O)[C@@H](O)[C@H](O)[C@@H](O)CO [Sorbitol] | – | – | 7.446 | – | > 100 mg/L | – | – | Non-toxic in tested concentration, hormesis | EC50 5 min [3, 10]: Non-toxic in tested concentration, hormesis; EC50 15 min [3, 11]: Non-toxic in tested concentration, hormesis; EC50 30 min ([3]; 30 min of exposure, 95% confidence interval in brackets, listed as sorbitol): completely non-toxic at the tested concentration
CCCc1nc2c(C)cc(-c3nc4ccccc4n3C)cc2n1Cc1ccc(-c2ccccc2C(=O)O)cc1 [TEL, Telmisartan, reference compound] | 196.52 mg/L (≈ 382 µM) | 99.70 mg/L (≈ 194 µM) | 8.036 | 77.3 mg/L (≈ 150 µM) | – | – | – | – | –
CCCCC(=O)N(Cc1ccc(-c2ccccc2-c2nnn[nH]2)cc1)[C@H](C(=O)O)C(C)C [VAL, Valsartan, reference compound] | 143.20 mg/L (≈ 329 µM) | 234.83 mg/L (≈ 539 µM) | 4.970 | 150 mg/L (≈ 346 µM) | – | – | – | – | –
Magnesium carbonate (heavy) | – | – | 10.257 | – | – | – | – | 65.60 (44.19–97.37) 0.9738 mg/L | EC50 5 min [3, 10]: 109.8 (55.61–216.6) 0.9360 mg/L; EC50 15 min [3, 11]: 86.42 (58.99–126.6) 0.9678 mg/L; EC50 30 min ([3]; 30 min of exposure, 95% confidence interval in brackets, listed as magnesium carbonate): 10 to 100 mg/L; Toxicity Category (Based on EC50, 30 min) ([3]; GHS acute toxicity categories [11]): III ((III) harmful, 10 < EC50 < 100 mg/L)
